How the values were obtained:
[1] = biological target: T1, Adenosine A1 receptor (Homo sapiens, UniProt P30542); test: FLIPR intracellular Ca2+ functional assay, recombinant CHO cells (A1/Gα6qi4myr); type: cell-based; conditions: read-out: EC50 values (agonist activity at adenosine receptors) A1
T1 construct: expressed in transfected cells; host or cells: CHO (Chinese hamster ovary) cells, stably double-transfected
T1 sequence (P30542 1-326): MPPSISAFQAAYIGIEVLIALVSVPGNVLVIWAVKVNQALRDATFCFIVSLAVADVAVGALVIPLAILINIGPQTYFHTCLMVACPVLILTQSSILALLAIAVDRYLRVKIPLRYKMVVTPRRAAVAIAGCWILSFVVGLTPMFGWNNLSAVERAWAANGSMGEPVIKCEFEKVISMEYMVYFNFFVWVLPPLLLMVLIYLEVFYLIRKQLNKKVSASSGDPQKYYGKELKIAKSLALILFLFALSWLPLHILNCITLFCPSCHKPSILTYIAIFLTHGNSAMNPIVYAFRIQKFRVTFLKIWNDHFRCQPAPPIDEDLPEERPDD
Procedure: (§1) In Vitro Functional Assays with Recombinant Cell Lines:
(§2) Functional assays were performed by detection of agonist-induced changes in the intracellular concentration of Ca^2+ in recombinant cell lines expressing adenosine receptor subtypes using the FLIPR™ (fluorescence imaging plate reader, Molecular Devices) technology. To allow optimal signalling through Ca^2+, chinese hamster ovary (CHO) cells were stably double-transfected with cDNAs to achieve expression of suitable combinations of adenosine receptor subtypes (A1, A2a, A2b or A3) with either G-protein Gα16 or hybrid protein Gα6qi4myr (German Patent Application no. 100333532.2). Optimal signals were achieved using combinations as follows:
(§3) For assays, recombinant cells were seeded in 96-well dishes (50000 cells/well) and grown overnight. Medium was then removed and cells incubated for 1 hour in buffer containing the dye Fluo-4. After incubation with dye, cells were washed, test compound added and changes in intracellular Ca^2+ concentration measured by FLIPR. Measured values were expressed as % change relative to controls (0%: no test compound added; 100%: 1 μM Adenosine added) and used for calculation of dose-response curves and subsequent determination of EC50 values.

[2] = biological target: T2, Adenosine A2a receptor (Homo sapiens, UniProt P29274); test: FLIPR intracellular Ca2+ functional assay, recombinant CHO cells (A2a/Gα16); type: cell-based
T2 construct: expressed in transfected cells; host or cells: CHO (Chinese hamster ovary) cells, stably double-transfected
Procedure: as §1, §2, §3

[3] = biological target: T3, Adenosine A2b receptor (Homo sapiens, UniProt P29275); test: FLIPR intracellular Ca2+ functional assay, recombinant CHO cells (A2b/Gα16); type: cell-based; conditions: for EC50: read-out: EC50 values (agonist activity at adenosine receptors) A2B
T3 construct: expressed in transfected cells; host or cells: CHO (Chinese hamster ovary) cells, stably double-transfected
T3 sequence (P29275 1-332): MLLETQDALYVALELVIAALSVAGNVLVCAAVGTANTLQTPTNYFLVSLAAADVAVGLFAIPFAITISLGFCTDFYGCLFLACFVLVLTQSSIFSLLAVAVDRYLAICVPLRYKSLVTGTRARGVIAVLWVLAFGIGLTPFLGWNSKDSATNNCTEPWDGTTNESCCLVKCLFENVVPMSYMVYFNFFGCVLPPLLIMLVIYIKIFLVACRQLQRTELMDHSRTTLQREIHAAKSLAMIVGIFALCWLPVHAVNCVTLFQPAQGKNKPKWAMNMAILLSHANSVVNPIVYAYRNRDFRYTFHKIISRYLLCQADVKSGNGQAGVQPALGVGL
Procedure: as §1, §2, §3

[4] = biological target: T4, Adenosine A3 receptor (Homo sapiens, UniProt P0DMS8); test: FLIPR intracellular Ca2+ functional assay, recombinant CHO cells (A3/Gα6qi4myr); type: cell-based; conditions: for EC50: read-out: EC50 values (agonist activity at adenosine receptors) A3
T4 construct: expressed in transfected cells; host or cells: CHO (Chinese hamster ovary) cells, stably double-transfected
T4 sequence (P0DMS8 1-318): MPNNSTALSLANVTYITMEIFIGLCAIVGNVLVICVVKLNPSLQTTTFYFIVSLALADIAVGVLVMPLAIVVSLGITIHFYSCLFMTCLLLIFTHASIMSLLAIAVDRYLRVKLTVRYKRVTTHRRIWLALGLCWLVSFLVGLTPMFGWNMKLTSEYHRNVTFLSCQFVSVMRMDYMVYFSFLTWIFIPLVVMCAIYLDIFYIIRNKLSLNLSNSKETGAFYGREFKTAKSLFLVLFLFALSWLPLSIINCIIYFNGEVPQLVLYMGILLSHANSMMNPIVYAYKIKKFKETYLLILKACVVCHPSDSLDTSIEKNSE
Procedure: as §1, §2, §3

[5] = test system: isolated guinea pig atrium; test: Effect on the isolated guinea pig atrium (contractile force, heart rate)
Procedure: D. Effect on the Isolated Guinea Pig Atrium:
Guinea pigs of either sex were killed by a blow on the back of the neck and exsanguinated.
Their heart was taken out and the atria removed. The preparation (atrium) was immediately transferred to Ringer solution (JT 431) which was at a temperature of 32° C. and was bubbled with a mixture of 95% O2 and 5% CO2. The composition of the solution in […] was: NaCl 9.0; KCl 0.42 CaCl2 0.24; NaHCO3 0.2; glucose 1.0. The atrium beats spontaneously with an initial tension of 500 mg. The contractile force and the heart rate was recorded with a computer program and automatically calculated (B-mon and A-mon PC programs. Fa. Jäckel. Hanau. GERMANY). After equilibration, the test compound was added to a final bath concentration. N was 4-6 per concentration.

[6] = test system: isolated rat adipocytes; test: Antilipolytic effect in isolated rat adipocytes; type: cell-based; conditions: Adipocyte, adenosine deaminase-induced lipolysis (glycerol and free fatty acid release)
Procedure: E. Antilipolytic Effect in Isolated Rat Adipocytes:
For the preparation of isolated rat adipocytes, epididymal fat pads were obtained from male Sprague-Dawley rats (150-180 g) killed by decapitation. The main fat pad blood vessel was removed with forceps and the pads were cut into small pieces. Digestion was carried out at 37° C. in a shaking water bath by treating 1 g of sliced pad for 20 min with 3 ml of 1 mg/ml collagenase (type I, CLS, Worthington) in 1% BSA, fraction V, in KRH (Krebs-Ringer solution buffered with 25 mM HEPES/KOH, pH 7.4, containing 2.5 mM CaCl2, 2 mM glucose, 1 mM sodium pyruvate, 0.5 units/ml adenosin deaminase and 200 nM phenylisopropyl adenosine). The adipocytes were filtered through nylon mesh of sufficient pore size that no pressure other than gentle teasing with a plastic spatula was necessary for the cells to pass through. After three cycles of centrifugation (500 g, 1 min), aspiration of the infranatant. and resuspension in KRH containing 1% BSA, the cells were suspended in KRH containing 4% defatted BSA. Small aliquots of the final suspension were aspirated into capillary hematocrit tubes and centrifuged for 1 min in a Microhematocrit centrifuge in order to determine what fraction of the suspension consisted of fat cells. Results expressed as activities per unit volume of packed adipocytes (corresponding to equivalent numbers of cells) are based on this centrifugation procedure. Lipolysis was initiated by addition of a 100 μl aliquot of the adipocyte suspension to 700 μl of incubation medium [prewarmed to 37° C. and consisting of KRH, 4% defatted BSA and 1 U/ml adenosine deaminase (type I, Sigma)], with or without addition of 8 μl of a solution of the appropriate test substance in 100% DMSO (at a concentration corresponding to 100 times its concentration in the final mixture). […] Incubations were performed in 5 ml polypropylene vials agitated in a shaking water bath (140 cycles/min, amplitude 4.5 cm) at 37° C. for 20, 40, and 60 min. The incubation was terminated by addition of 200 μl of 50 mM EDTA buffered to pH 7.4 with Tris. For the glycerol determination, the whole mixture was mixed rapidly and homogenized with a ground glass pestle in a 1 ml ground glass homogenizing tube (10 pulses). The homogenate was transferred immediately to a 1.5 ml Eppendorf cup precooled to 4° C., after which the extracts were maintained at 4° C. The homogenate was then centrifuged (10,000 g, 15 min) and the infranatant below the fat cake removed with a glass Pasteur pipette. taking care not to aspirate the membrane pellet. and transferred to another Eppendorf cup. 300 μl aliquots of the infranatant were added to 300 μl volumes of 10% (w/v) HClO4. The precipitate was in each case removed by centrifugation (10,000 g, 2 min) and the supernatant neutralized with 20% (w/v) KOH, followed by addition of 50 μl of 1 M Tris/HCl, pH 7.4, A 50 μl sample was then incubated (5 min, 37° C.) with 1 ml of 0.1 M HEPES/KOH, pH 7.5, containing 2 mM ATP, 0.5 mM 4-aminoantipyrine, 1 mM EDTA, 0.5 U glycerol kinase, 4 U glycerol-3-phosphate oxidase, 2 U peroxidase, 2.7 mM p-chlorophenol, 0.04% Triton X-100 and 2 mM MgSO4.7H2O, and the glycerol content determined from the absorbance at 505 nm. For the determination of free fatty acids, 300 μl aliquots of the incubation mixture were added to 3 ml of chloroform/heptane (1:1 v/v) containing 2% (v/v) methanol. and the liberated free fatty acids determined with copper reagent and bathocuproine. The inhibitory activities of the cyclipostins were calculated from the combined results (glycerol and free fatty acid release) by plotting the log of the dose against the percent response (with the adenosine deaminase-induced lipolysis set at 100%). Data in the linear portion of the log (dose)-percent response curves were analyzed using parallel-line bioassay techniques.

T2 sequence (P29274 whole entry): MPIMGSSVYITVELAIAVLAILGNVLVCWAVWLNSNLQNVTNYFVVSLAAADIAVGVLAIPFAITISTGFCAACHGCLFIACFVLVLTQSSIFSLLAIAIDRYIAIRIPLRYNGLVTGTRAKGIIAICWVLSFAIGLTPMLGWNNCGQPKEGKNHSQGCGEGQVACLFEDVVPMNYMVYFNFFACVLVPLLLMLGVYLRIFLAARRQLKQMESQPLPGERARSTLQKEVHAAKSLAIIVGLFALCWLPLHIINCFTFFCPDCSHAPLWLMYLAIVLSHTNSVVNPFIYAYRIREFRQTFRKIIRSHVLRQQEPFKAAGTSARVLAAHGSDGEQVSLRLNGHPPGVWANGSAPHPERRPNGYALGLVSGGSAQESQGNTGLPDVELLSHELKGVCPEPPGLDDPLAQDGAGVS

For `O[C@@H]1[C@@H](CF)C[C@@H](n2cnc3c(N[C@H]4CCN(c5ccc(C(F)(F)F)cn5)C4)ncnc32)[C@@H]1O` [Example 4, (1R,2S,3R,5S)-3-{6-[1-(5-trifluoromethyl-pyridin-2-yl)-pyrrolidin-3(S)-ylamino]-purin-9-yl}-5-fluoromethyl-cyclopentane-1,2-diol], the EC50 [1] was 1610 nM, the “EC50 values (agonist activity at adenosine receptors) A2A” value [2] was “Inactive” and the EC50 [3] was over 30000 nM. For the same compound, the EC50 [4] was over 50000 nM, the Contractile force ([5]; at 10 μM) was −7% at 10 μM and the Heart rate ([5]; at 1–100 μM) was “no effect at 1–100 μM”. It also gave an IC50 [6] of 100 nM.

With `CC[C@H](Cc1sccc1Cl)Nc1ncnc2c1ncn2[C@@H]1C[C@H](COC(F)(F)F)[C@@H](O)[C@H]1O` [Example 11, (1R,2S, 3R, 5R)-3-{6-[(R)-1-(3-chloro-thiophen-2-ylmethyl) -propylamino]-purin-9-yl}-5-trifluoromethoxymethyl-cyclopentane-1,2-diol] the melting point was 140 °C.

In the case of `O[C@@H]1[C@@H](COC(F)(F)F)C[C@@H](n2cnc3c(N[C@H]4CCN(c5cccc(Cl)c5)C4)ncnc32)[C@@H]1O` [Example 3, (1R,2S,3R,5R)-3-{6-[1-(3-chloro-phenyl-1-yl)-pyrrolidin-3(S)-ylamino]-purin-9-yl}-5-trifluoromethoxymethyl-cyclopentane-1,2-diol], the EC50 [1] is reported as 3690 nM, the EC50 ([2]; read-out: EC50 values (agonist activity at adenosine receptors) A2A) is reported as over 30000 nM and the “EC50 values (agonist activity at adenosine receptors) A2B” value [3] is reported as “inactive”. The “EC50 values (agonist activity at adenosine receptors) A3” value [4] was “inactive”.

In the case of `O[C@@H]1[C@@H](CF)C[C@@H](n2cnc3c(N[C@H]4CCN(c5ccc(Cl)cn5)C4)ncnc32)[C@@H]1O` [Example 6, (1R,2S,3R,5S)-3-{6-[1-(5-chloro-pyridin-2-yl)-pyrrolidin-3(S) -ylamino]-purin-9-yl}-5-fluoromethyl-cyclopentane-1,2-diol], the EC50 [1] is reported as 1250 nM, the “EC50 values (agonist activity at adenosine receptors) A2A” value [2] is reported as “Inactive” and the EC50 [3] is reported as over 30000 nM. The “EC50 values (agonist activity at adenosine receptors) A3” value [4] was “inactive”, the Contractile force ([5]; at 30 μM) was −3% at 30 μM and the Heart rate ([5]; at 1–100 μM) was “no effect at 1–100 μM”. For the same compound, the IC50 [6] was 10 nM.

For `O[C@@H]1[C@@H](COC(F)(F)F)C[C@@H](n2cnc3c(N[C@H]4CCN(c5ccc(Cl)cn5)C4)ncnc32)[C@@H]1O` [Example 9, (1R,2S,3R,5R)-3-{6-[1-(5-chloro-pyridin-2-yl)-pyrrolidin-3(S) -ylamino]-purin-9-yl}-5-trifluoromethoxymethyl-cyclopentane-1,2-diol], the melting point was 130 °C.

In the case of `CC[C@H](Cc1sccc1Cl)Nc1ncnc2c1ncn2[C@@H]1C[C@H](CF)[C@@H](O)[C@H]1O` [Example 2, (1R,2S,3R,5S)-3-{6-[(R)-1-(3-chloro-thiophen-2-ylmethyl) -propylamino]-purin-9-yl}-5-fluoromethyl-cyclopentane-1,2-diol], the EC50 [1] is reported as 20 nM, the “EC50 values (agonist activity at adenosine receptors) A2A” value [2] is reported as “inactive” and the EC50 [3] is reported as 3400 nM. For the same compound, the EC50 [4] was over 40000 nM, the Contractile force ([5]; at 10 μM) was −4% at 10 μM and the Heart rate ([5]; at 10 μM) was −4% at 10 μM. It also gave an IC50 [6] of 20 nM.

In the case of `O[C@@H]1[C@@H](CF)C[C@@H](n2cnc3c(N[C@H]4CCN(c5cccc(Cl)c5)C4)ncnc32)[C@@H]1O` [Example 1, (1R,2S,3R,5S)-3-{6-[1-(3-chloro-phenyl-1-yl)-pyrrolidin-3(S)-ylamino]-purin-9-yl}-5-fluoromethyl-cyclopentane-1,2-diol], the EC50 [1] is reported as 150 nM, the “EC50 values (agonist activity at adenosine receptors) A2A” value [2] is reported as “inactive” and the EC50 [3] is reported as over 30000 nM. The EC50 [4] was over 50000 nM, the Heart rate ([5]; at 1–100 μM) was “no effect at 1–100 μM” and the IC50 [6] was 5 nM.

`O[C@@H]1[C@@H](COC(F)(F)F)C[C@@H](n2cnc3c(N[C@H]4CCN(c5ccc(C(F)(F)F)cn5)C4)ncnc32)[C@@H]1O` [Example 8, (1R,2S,3R,5R)-3-{6-[1-(5-trifluoromethyl-pyridin-2-yl)-pyrrolidin-3(s)-ylamino]-purin-9-yl}-5-trifluoromethoxymethyl-cyclopentane-1,2-diol] showed a melting point of 142 °C.
